Organism: Rattus norvegicus
Test: DrugMatrix - Regimen: Daily Repeat
Assay type: toxicity, organism-based, Sprague-Dawley
Set-up: regimen Daily Repeat, gender Male, age 6-8 weeks
Conditions: in vivo, po, route oral GAVAGE; for ABSOLUTE MONOCYTE / ABSOLUTE SEGMENTED NEUTROPHIL / BASOPHIL / EOSINOPHIL / ERYTHROCYTE COUNT / HEMATOCRIT / HEMOGLOBIN / LEUKOCYTE COUNT / LYMPHOCYTE / MEAN CORPUSCULAR HEMOGLOBIN / MEAN CORPUSCULAR HEMOGLOBIN CONCENTRATION / MEAN CORPUSCULAR VOLUME / MONOCYTE / NEUTROPHIL / NUCLEATED RED BLOOD CELLS / PLATELET COUNT / ABSOLUTE BASOPHIL / ABSOLUTE EOSINOPHIL / ABSOLUTE LYMPHOCYTE: tissue Blood; for ALANINE AMINOTRANSFERASE / ALBUMIN / ALKALINE PHOSPHATASE / ASPARTATE AMINOTRANSFERASE / BLOOD UREA NITROGEN / CARBON DIOXIDE / CHLORIDE / CHOLESTEROL / CREATINE PHOSPHOKINASE / CREATININE / GLUCOSE / LACTATE DEHYDROGENASE / LIPASE / PHOSPHORUS / POTASSIUM / SODIUM / TOTAL BILIRUBIN / TOTAL PROTEIN / URIC ACID: tissue Plasma
[1] = 20 mg/kg, 120 h, dose level Low, time 5 day, […]
[2] = 54 mg/kg, 72 h, dose level M1, time 3 day, vehicle 100 % WATER
[3] = 54 mg/kg, 120 h, dose level M1, time 5 day, vehicle 100 % WATER

## Cn1cnc([N+](=O)[O-])c1Sc1ncnc2nc[nH]c12 [AZATHIOPRINE]
[1]
  ABSOLUTE MONOCYTE: 73.67 CELLS/uL
  ABSOLUTE SEGMENTED NEUTROPHIL: 134 CELLS/uL
  BASOPHIL: 0%
  EOSINOPHIL: 0%
  ERYTHROCYTE COUNT: 5 x10E6/uL
  HEMATOCRIT: 31.27%
  HEMOGLOBIN: 12.3 G/DL
  LEUKOCYTE COUNT: 5.33 x10E3/uL
  LYMPHOCYTE: 96%
  MEAN CORPUSCULAR HEMOGLOBIN: 24.53 pg
  MEAN CORPUSCULAR HEMOGLOBIN CONCENTRATION: 39.33 G/DL
  MEAN CORPUSCULAR VOLUME: 62.43 fL
  MONOCYTE: 1.33%
  NEUTROPHIL: 2.67%
  NUCLEATED RED BLOOD CELLS: 0 /100WBC
  PLATELET COUNT: 1346.67 x10E3/uL
  ALANINE AMINOTRANSFERASE: 45.33 u/L
  ALBUMIN: 4.33 G/DL
  ALKALINE PHOSPHATASE: 305 u/L
  ASPARTATE AMINOTRANSFERASE: 83 u/L
  BLOOD UREA NITROGEN: 14 mg/dL
  CARBON DIOXIDE: 29.33 mmol/L
  CHLORIDE: 104.33 MEQ/L
  CHOLESTEROL: 75 mg/dL
  CREATINE PHOSPHOKINASE: 212.33 u/L
  CREATININE: 0.4 mg/dL
  GLUCOSE: 152.67 mg/dL
  LACTATE DEHYDROGENASE: 68 u/L
  LIPASE: 13 u/L
  PHOSPHORUS: 10.93 mg/dL
  POTASSIUM: 5.68 MEQ/L
  SODIUM: 146.9 MEQ/L
  TOTAL BILIRUBIN: 0.1 mg/dL
  TOTAL PROTEIN: 6.67 G/DL
  URIC ACID: 0.33 mg/dL
[2]
  ABSOLUTE BASOPHIL: 0 CELLS/uL
  ABSOLUTE EOSINOPHIL: 0 CELLS/uL
  ABSOLUTE LYMPHOCYTE: 10600.67 CELLS/uL
  ABSOLUTE MONOCYTE: 39.33 CELLS/uL
  ABSOLUTE SEGMENTED NEUTROPHIL: 326.67 CELLS/uL
  BASOPHIL: 0%
  EOSINOPHIL: 0%
  ERYTHROCYTE COUNT: 5.04 x10E6/uL
  HEMATOCRIT: 31.57%
  HEMOGLOBIN: 12.03 G/DL
  LEUKOCYTE COUNT: 10.97 x10E3/uL
  LYMPHOCYTE: 96.67%
  MEAN CORPUSCULAR HEMOGLOBIN: 23.9 pg
  MEAN CORPUSCULAR HEMOGLOBIN CONCENTRATION: 38.13 G/DL
  MEAN CORPUSCULAR VOLUME: 62.73 fL
  MONOCYTE: 0.33%
  NEUTROPHIL: 3%
  NUCLEATED RED BLOOD CELLS: 0 /100WBC
  PLATELET COUNT: 1322.33 x10E3/uL
  ALANINE AMINOTRANSFERASE: 39.67 u/L
  ALBUMIN: 4.23 G/DL
  ALKALINE PHOSPHATASE: 313.33 u/L
  ASPARTATE AMINOTRANSFERASE: 66 u/L
  BLOOD UREA NITROGEN: 10.67 mg/dL
  CARBON DIOXIDE: 28.67 mmol/L
  CHLORIDE: 100 MEQ/L
  CHOLESTEROL: 81.67 mg/dL
  CREATINE PHOSPHOKINASE: 160.33 u/L
  CREATININE: 0.25 mg/dL
  GLUCOSE: 157.33 mg/dL
  LACTATE DEHYDROGENASE: 114.33 u/L
  LIPASE: 13 u/L
  PHOSPHORUS: 10.63 mg/dL
  POTASSIUM: 6.03 MEQ/L
  SODIUM: 141.9 MEQ/L
  TOTAL BILIRUBIN: 0.13 mg/dL
  TOTAL PROTEIN: 5.97 G/DL
  URIC ACID: 1.17 mg/dL
[3]
  ABSOLUTE BASOPHIL: 0 CELLS/uL
  ABSOLUTE EOSINOPHIL: 0 CELLS/uL
  ABSOLUTE LYMPHOCYTE: 4380.67 CELLS/uL
  ABSOLUTE MONOCYTE: 0 CELLS/uL
  ABSOLUTE SEGMENTED NEUTROPHIL: 119.33 CELLS/uL
  BASOPHIL: 0%
  EOSINOPHIL: 0%
  ERYTHROCYTE COUNT: 4.85 x10E6/uL
  HEMATOCRIT: 31.6%
  HEMOGLOBIN: 12.13 G/DL
  LEUKOCYTE COUNT: 4.5 x10E3/uL
  LYMPHOCYTE: 97.33%
  MEAN CORPUSCULAR HEMOGLOBIN: 25 pg
  MEAN CORPUSCULAR HEMOGLOBIN CONCENTRATION: 38.37 G/DL
  MEAN CORPUSCULAR VOLUME: 65.07 fL
  MONOCYTE: 0%
  NEUTROPHIL: 2.67%
  NUCLEATED RED BLOOD CELLS: 0 /100WBC
  PLATELET COUNT: 1116.33 x10E3/uL
  ALANINE AMINOTRANSFERASE: 29.67 u/L
